Source: article PMC6143625, “A high throughput screen for next-generation leads targeting malaria parasite transmission” (Nature Communications, 2018)

Legend:
[1] = system: P. falciparum stage V male gametocytes (male gamete formation); test: P. falciparum dual gamete formation assay (Pf DGFA), male readout (exflagellation), 48 h carry-over format; assay type: cell-based, Plasmodium falciparum NF54; details: primary screen, 2 uM, 48 h incubation, single replicate
[2] = system: P. falciparum stage V female gametocytes (female gamete formation); test: P. falciparum dual gamete formation assay (Pf DGFA), female readout (Pfs25 expression), 48 h carry-over format; assay type: cell-based, Plasmodium falciparum NF54; details: primary screen, 2 uM, 48 h incubation, single replicate

| Structure (SMILES) | %Inhibition Male @2uM [1] [%] | %Inhibition Female @2uM [2] [%] |
| --- | --- | --- |
| CCc1ccc(CN(C)C(=O)C2CC(=O)N(c3cccc(O)c3)C2)nc1 (stereo not shown) [DDD01246796] | 126.32 | <30 |
| C=C1C(C)(C)[C@@H]2CC[C@]1(C(=O)N1CCC(n3cc(CCO)nn3)CC1)C2 [DDD01246808] | <30 | 30.26 |
| COCCN(C)CCN1CC2(CCN(C3CCSC3)CC2)OC1=O (stereo not shown) [DDD01246844] | 176.84 | <30 |
| Cc1cccc(C(=O)N2CCCC(c3nccn3Cc3cscn3)C2)n1 (stereo not shown) [DDD01247041] | 160.00 | <30 |
| Cc1ccccc1OCC(=O)N1CCOC2(CNCCOC2)C1 (stereo not shown) [DDD01247077] | 174.44 | <30 |
| COc1cccc(Cn2c(C)c(C)oc2=O)c1OC [DDD01247327] | <30 | 30.45 |
| CN(C)CC(=O)NC1CC(C)(C)Cc2nc(C(C)(C)C)ncc21 (stereo not shown) [DDD01247509] | <30 | 43.65 |
| c1cc(CN2CCC(c3ccncc3)CC2)cc(Cn2cccn2)c1 [DDD01247553] | 75.89 | <30 |
| CCNC(=O)[C@@H]1C[C@H](N)CN1C(=O)C1(c2ccc(OC)cc2)CCCC1 [DDD01247775] | <30 | 31.68 |
| Cc1ccc(CN(Cc2ccncc2)C2CCN(C)CC2)s1 [DDD01247850] | <30 | 35.49 |
| CSc1nccc(N2CCC(=O)N(CC3CC3)C(C(C)C)C2)n1 (stereo not shown) [DDD01248006] | 91.33 | <30 |
| CCn1c(C2CCCN(C(=O)c3ccc[nH]3)C2)nn(CCN(C)C)c1=O (stereo not shown) [DDD01248239] | 83.64 | <30 |
| CCc1ccc(CN(C)Cc2cnc(S(=O)(=O)CC)n2CCOC)cc1 [DDD01248618] | 143.16 | <30 |
| O=C(O)C1(Oc2ccccc2F)CCN(C/C=C/c2ccco2)CC1 [DDD01248641] | <30 | 35.65 |
| CN(C)C(=O)NCc1cc2n(n1)CCCN(CC1CCCNC1)C2 (stereo not shown) [DDD01248722] | 166.37 | <30 |
| Cc1cccc2[nH]c(C3CCN(C(=O)c4ccc[nH]4)CC3)nc12 [DDD01248889] | 179.77 | <30 |
| Cc1nc2cc(OCc3nc(C(=O)NC(C)(CO)CO)co3)ccc2s1 [DDD01248928] | 109.47 | <30 |
| Cc1cccc(N2CCC(N3CCCC4(CNC(=O)O4)C3)CC2)c1C (stereo not shown) [DDD01248972] | <30 | 36.41 |
| CCCn1cc(C(=O)NC2CCC(n3cnnc3)CC2)c(C)n1 (stereo not shown) [DDD01249122] | 90.61 | <30 |
| COc1cccc2c1OCC(C(=O)N1CCSCC1)C2 (stereo not shown) [DDD01249304] | 51.06 | <30 |
| O=C(c1ccccc1)N1CCCC(Nc2ccc(F)cc2)C1 (stereo not shown) [DDD01249390] | 180.87 | <30 |
| Cc1noc(CN(C)C(=O)c2[nH]nc(N)c2-c2ccccc2)n1 [DDD01249532] | <30 | 61.65 |
| Cc1nn(C)c2nc(N(C)CC3CCN(CC(C)C)C3)sc12 (stereo not shown) [DDD01249587] | <30 | 47.43 |
| COc1cccc(OC2CN(C(=O)c3sccc3C)C2)c1 [DDD01250000] | <30 | 64.75 |
| CN1CCC(N(C)C[C@H]2CC[C@@H](Cc3ccc4occc4c3)O2)CC1 [DDD01250070] | <30 | 33.03 |
| CCc1nn(C)c(Cl)c1CN1CCCC2(CC1)CN(C)C(=O)O2 (stereo not shown) [DDD01250081] | <30 | 32.84 |
